Measurements reported in patent US10106556B2, “Heterocyclic compound” (TAKEDA PHARMACEUTICAL COMPANY LIMITED, priority 2015, dated 2018).

Molecular target: T1, His-hMAGL (recombinant polyhistidine tagged human MAGL protein) (Homo sapiens, UniProt Q99685)
T1 construct: made in house; host or cells: E. coli BL21(DE3)
T1 sequence (Q99685 1-303): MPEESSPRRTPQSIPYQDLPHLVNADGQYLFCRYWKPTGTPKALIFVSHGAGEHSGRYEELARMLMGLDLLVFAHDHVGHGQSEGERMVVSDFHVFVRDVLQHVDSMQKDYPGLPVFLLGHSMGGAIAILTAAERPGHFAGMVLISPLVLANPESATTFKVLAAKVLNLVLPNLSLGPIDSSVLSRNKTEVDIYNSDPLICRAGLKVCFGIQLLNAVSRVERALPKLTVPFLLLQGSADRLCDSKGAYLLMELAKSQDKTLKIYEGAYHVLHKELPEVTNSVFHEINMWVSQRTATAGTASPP
Assay: Measurement of MAGL inhibitory activity (arachidonic acid production from 2-arachidonylglycerol, RapidFire-mass spectrometry)
Format: biochemical
Conditions: MAGL inhibitory rate at 10 μM test compound, 60 min preincubation with His-hMAGL, 2-arachidonylglycerol substrate, 10 min reaction at room temperature
In short: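 Recombinant His-tagged human MAGL converted 2-arachidonylglycerol to arachidonic acid. Reactions received acetonitrile with 3 μM arachidonic acid-d8 as internal standard, and product was quantified by RapidFire SPE (C4) with negative-mode SRM mass spectrometry. Percent inhibition was calculated against compound-free and enzyme-free controls.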

Row | SMILES | inhibition at 10 µM [%] | % inhibition (10 μM) (10 µM) [%]
1 | N#Cc1cccc(OCC2CCN(C(=O)c3ccc4c(c3)NC(=O)CO4)CC2)c1 [Example 48, 3-((1-((3-oxo-3,4-dihydro-2H-1,4-benzoxazin-6-yl)carbonyl)piperidin-4-yl)methoxy)benzonitrile] | 89 | –
2 | N#CC1(COc2ccc(F)cc2Cl)CCN(C(=O)c2cc3c(cc2F)OCC(=O)N3)CC1 [Example 81, 4-((2-chloro-4-fluorophenoxy)methyl)-1-((7-fluoro-3-oxo-3,4-dihydro-2H-1,4-benzoxazin-6-yl)carbonyl)piperidine-4-carbonitrile] | 99 | –
3 | O=C1COc2cc(F)c(C(=O)N3CCC(O)(COc4ccc(Cl)cc4Cl)CC3)cc2N1 [Example 74, 6-((4-((2,4-dichlorophenoxy)methyl)-4-hydroxypiperidin-1-yl)carbonyl)-7-fluoro-2H-1,4-benzoxazin-3(4H)-one] | 102 | –
4 | Cc1cncc(-c2cc(Cl)ccc2OCC2CN(C(=O)c3cc4c(cc3F)OCC(=O)N4)C2)c1 [Example 202, 6-((3-((4-chloro-2-(5-methylpyridin-3-yl)phenoxy)methyl)azetidin-1-yl)carbonyl)-7-fluoro-2H-1,4-benzoxazin-3(4H)-one] | 100 | –
5 | Cc1cc(-c2cc(Cl)ccc2OCC2CN(C(=O)c3cc4c(cc3F)OCC(=O)N4)C2)ccn1 [Example 193, 6-((3-((4-chloro-2-(2-methylpyridin-4-yl)phenoxy)methyl)azetidin-1-yl)carbonyl)-7-fluoro-2H-1,4-benzoxazin-3(4H)-one] | 102 | –
6 | O=C1COc2cc(F)c(C(=O)N3CC(COc4ccc(Cl)cc4-c4ccc(Cl)nc4)C3)cc2N1 [Example 205, 6-((3-((4-chloro-2-(6-chloropyridin-3-yl)phenoxy)methyl)azetidin-1-yl)carbonyl)-7-fluoro-2H-1,4-benzoxazin-3(4H)-one] | 103 | –
7 | O=C1COc2cc(F)c(C(=O)N3CC(COc4ccc(Cl)cc4-c4ccc(Cl)cn4)C3)cc2N1 [Example 196, 6-((3-((4-chloro-2-(5-chloropyridin-2-yl)phenoxy)methyl)azetidin-1-yl)carbonyl)-7-fluoro-2H-1,4-benzoxazin-3(4H)-one] | 94 | –
8 | O=C1COc2cc(F)c(C(=O)N3CC(COc4ccc(-c5cccnc5)cc4F)C3)cc2N1 [Example 261, 7-fluoro-6-((3-((2-fluoro-4-(pyridin-3-yl)phenoxy)methyl)azetidin-1-yl)carbonyl)-2H-1,4-benzoxazin-3(4H)-one] | 98 | –
9 | CC(=O)n1ncc2c(OCC3CCN(C(=O)c4ccc5c(c4)NC(=O)CO5)CC3)cccc21 [Example 63, 6-((4-(((1-acetyl-1H-indazol-4-yl)oxy)methyl)piperidin-1-yl)carbonyl)-2H-1,4-benzoxazin-3(4H)-one] | 93 | –
10 | O=C1COc2cc(F)c(C(=O)N3CCC(COc4ccc5c(c4)CCCC5)CC3)cc2N1 [Example 284, 7-fluoro-6-((4-((5,6,7,8-tetrahydronaphthalen-2-yloxy)methyl)piperidin-1-yl)carbonyl)-2H-1,4-benzoxazin-3(4H)-one] | 96 | –
11 | O=C1COc2ncc(C(=O)N3CCC(COc4cccc(Cl)c4Cl)CC3)cc2N1 [Example 25, 7-((4-((2,3-dichlorophenoxy)methyl)piperidin-1-yl)carbonyl)-1H-pyrido[2,3-b][1,4]oxazin-2(3H)-one] | 100 | –
12 | O=C1COc2cc(F)c(C(=O)N3CC(COc4ccc(Cl)cc4-c4ccncc4F)C3)cc2N1 [Example 209, 6-((3-((4-chloro-2-(3-fluoropyridin-4-yl)phenoxy)methyl)azetidin-1-yl)carbonyl)-7-fluoro-2H-1,4-benzoxazin-3(4H)-one] | 101 | –
13 | O=C1COc2ncc(C(=O)N3CCC(COc4cc(Cl)ccc4Cl)CC3)cc2N1 [Example 18, 7-((4-((2,5-dichlorophenoxy)methyl)piperidin-1-yl)carbonyl)-1H-pyrido[2,3-b][1,4]oxazin-2(3H)-one] | 100 | –
14 | CC(C)(O)c1cc(F)ccc1OCC1CCN(C(=O)c2cc3c(cc2F)OCC(=O)N3)CC1 [Example 91, 7-fluoro-6-((4-((4-fluoro-2-(2-hydroxypropan-2-yl)phenoxy)methyl)piperidin-1-yl)carbonyl)-2H-1,4-benzoxazin-3(4H)-one] | 99 | –
15 | Cn1cc(-c2cc(Cl)ccc2OCC2CN(C(=O)c3cc4c(cc3F)OCC(=O)N4)C2)cn1 [Example 213, 6-((3-((4-chloro-2-(1-methyl-1H-pyrazol-4-yl)phenoxy)methyl)azetidin-1-yl)carbonyl)-7-fluoro-2H-1,4-benzoxazin-3(4H)-one] | 100 | –
16 | O=C1COc2cc(Cl)c(C(=O)N3CC(COc4ccc(F)cc4Cl)C3)cc2N1 [Example 87, 7-chloro-6-((3-((2-chloro-4-fluorophenoxy)methyl)azetidin-1-yl)carbonyl)-2H-1,4-benzoxazin-3(4H)-one] | 102 | –
17 | O=C1COc2cc(F)c(C(=O)N3CC(COc4ccc(Cl)cc4-c4cnn(C(F)F)c4)C3)cc2N1 [Example 214, 6-((3-((4-chloro-2-(1-(difluoromethyl)-1H-pyrazol-4-yl)phenoxy)methyl)azetidin-1-yl)carbonyl)-7-fluoro-2H-1,4-benzoxazin-3(4H)-one] | 104 | –
18 | O=C1COc2ncc(C(=O)N3CCC(COc4ccc(Cl)cc4)CC3)cc2N1 [Example 6, 7-((4-((4-chlorophenoxy)methyl)piperidin-1-yl)carbonyl)-1H-pyrido[2,3-b][1,4]oxazin-2(3H)-one] | 98 | –
19 | CC(Oc1cc(F)cc(F)c1)C1CN(C(=O)c2cc3c(cc2F)OCC(=O)N3)C1 (centres unmarked) [Example 314, 6-((3-(1-(3,5-difluorophenoxy)ethyl)azetidin-1-yl)carbonyl)-7-fluoro-2H-1,4-benzoxazin-3(4H)-one] | – | 98

Next, values leading:

Row | inhibition at 10 µM [%] | % inhibition (10 μM) (10 µM) [%] | SMILES
20 | 92 | – | CS(=O)(=O)c1ccc(COC2CN(C(=O)c3cc4c(cc3F)OCC(=O)N4)C2)cc1 [Example 337, 7-fluoro-6-((3-((4-(methylsulfonyl)benzyl)oxy)azetidin-1-yl)carbonyl)-2H-1,4-benzoxazin-3(4H)-one]
21 | 99 | – | O=C1COc2cc(F)c(C(=O)N3CC(COc4cc(F)ccc4Cl)C3)cc2N1 [Example 132, 6-((3-((2-chloro-5-fluorophenoxy)methyl)azetidin-1-yl)carbonyl)-7-fluoro-2H-1,4-benzoxazin-3(4H)-one]
22 | 100 | – | O=C1COc2cc(F)c(C(=O)N3CC(COc4ccc5[nH]ncc5c4)C3)cc2N1 [Example 156, 7-fluoro-6-((3-((1H-indazol-5-yloxy)methyl)azetidin-1-yl)carbonyl)-2H-1,4-benzoxazin-3(4H)-one]
23 | 98 | – | N#Cc1cc(OCC2CN(C(=O)c3cc4c(cc3F)OCC(=O)N4)C2)ccc1Cl [Example 133, 2-chloro-5-((1-((7-fluoro-3-oxo-3,4-dihydro-2H-1,4-benzoxazin-6-yl)carbonyl)azetidin-3-yl)methoxy)benzonitrile]
24 | 95 | – | O=C1COc2cc(F)c(C(=O)N3CC(COCc4ccccc4)C3)cc2N1 [Example 271, 6-((3-((benzyloxy)methyl)azetidin-1-yl)carbonyl)-7-fluoro-2H-1,4-benzoxazin-3(4H)-one]
25 | 100 | – | Cc1cccc(COC2CN(C(=O)c3cc4c(cc3F)OCC(=O)N4)C2)c1 [Example 329, 7-fluoro-6-((3-((3-methylbenzyl)oxy)azetidin-1-yl)carbonyl)-2H-1,4-benzoxazin-3(4H)-one]
26 | 100 | – | Cc1nc2ccc(OCC3CN(C(=O)c4cc5c(cc4F)OCC(=O)N5)C3)cc2o1 [Example 153, 7-fluoro-6-((3-(((2-methyl-1,3-benzoxazol-6-yl)oxy)methyl)azetidin-1-yl)carbonyl)-2H-1,4-benzoxazin-3(4H)-one]
27 | 100 | – | Cc1cc(OCC2CN(C(=O)c3cc4c(cc3F)OCC(=O)N4)C2)ccc1F [Example 287, 7-fluoro-6-((3-((4-fluoro-3-methylphenoxy)methyl)azetidin-1-yl)carbonyl)-2H-1,4-benzoxazin-3(4H)-one]
28 | 104 | – | O=C1COc2cc(F)c(C(=O)N3CC(COc4ccc(C(F)(F)F)c(F)c4)C3)cc2N1 [Example 277, 7-fluoro-6-((3-((3-fluoro-4-(trifluoromethyl)phenoxy)methyl)azetidin-1-yl)carbonyl)-2H-1,4-benzoxazin-3(4H)-one]
29 | 98 | – | O=C1COc2cc(F)c(C(=O)N3CCC(COc4ccccc4)CC3)cc2N1 [Example 285, 7-fluoro-6-((4-(phenoxymethyl)piperidin-1-yl)carbonyl)-2H-1,4-benzoxazin-3(4H)-one]
30 | 92 | – | O=C1COc2cc(F)c(C(=O)N3CC(COc4cccc5nccnc45)C3)cc2N1 [Example 139, 7-fluoro-6-((3-((quinoxalin-5-yloxy)methyl)azetidin-1-yl)carbonyl)-2H-1,4-benzoxazin-3(4H)-one]
31 | 101 | – | N#Cc1ccccc1COC1CN(C(=O)c2cc3c(cc2F)OCC(=O)N3)C1 [Example 333, 2-(((1-((7-fluoro-3-oxo-3,4-dihydro-2H-1,4-benzoxazin-6-yl)carbonyl)azetidin-3-yl)oxy)methyl) benzonitrile]
32 | 98 | – | O=C1COc2cc(F)c(C(=O)N3CC(COc4ccc5cnccc5c4)C3)cc2N1 [Example 173, 7-fluoro-6-((3-((isoquinolin-6-yloxy)methyl)azetidin-1-yl)carbonyl)-2H-1,4-benzoxazin-3(4H)-one]
